In publication PMC9177545, “3-oxo-C12:2-HSL, quorum sensing molecule from human intestinal microbiota, inhibits pro-inflammatory pathways in immune cells via bitter taste receptors” (Scientific Reports, 2022):

Target: T1, TAS2R138 (Mus musculus, UniProt Q7TQA6)
T1 construct: endogenous in cells; host or cells: RAW264.7 murine macrophages (ATCC)
T1 sequence (Q7TQA6 1-331): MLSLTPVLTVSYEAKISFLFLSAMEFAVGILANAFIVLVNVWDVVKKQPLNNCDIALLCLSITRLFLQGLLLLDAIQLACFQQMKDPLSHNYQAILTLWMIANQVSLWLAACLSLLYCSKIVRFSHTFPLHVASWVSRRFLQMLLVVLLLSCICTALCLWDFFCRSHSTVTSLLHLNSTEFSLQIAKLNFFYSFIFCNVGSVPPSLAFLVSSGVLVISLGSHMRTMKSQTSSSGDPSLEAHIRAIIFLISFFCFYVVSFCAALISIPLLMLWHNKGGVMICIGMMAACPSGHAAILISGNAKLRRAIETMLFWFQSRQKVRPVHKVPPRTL
Assay: TAS2R38/TAS2R138 inhibition experiment: TNFα secretion of RAW264.7 cells pre-treated with probenecid
Format: cell-based
Conditions: pre-treated with 1 mM probenecid one hour, then LPS, IFNγ and AHL six hours
Protocol: In RAW264.7 cells, inflammation was triggered with LPS (10 ng/mL, Sigma) and IFNγ (10 U/mL, R&Dsystems) for 2 h or 6 h, depending on the experiments. PBMC were exposed to LPS (10 ng/mL) and AHL for 24 h. For TAS2R38 inhibition experiments, cells were exposed to TAS2R38 allosteric inhibitor probenecid (1 mM, Sigma) for one hour before adding AHLs and the inflammatory cocktail, without changing the media.
At the end of cell treatment, the medium was centrifuged at 300g for 5 min at 4 °C. Supernatant was frozen at − 80 °C until ELISA assays. TNFα and IL-1β ELISA kits were purchased from R&D systems and performed according to the manufacturer’s instructions. Briefly, plates were coated with a capture antibody and incubated overnight. Wells were blocked using 1% bovine serum albumin-PBS solution (Sigma), then exposed to cell supernatants at room temperature for two hours. Wells were washed and incubated with the detection antibody for an additional two hours. After thorough washing, Streptavidin-HRP solution was added for 20 min. Wells were washed, then incubated with TMB (Biolegend) solution for 20 min and the reaction was stopped using 1 M H2SO4. Absorbance was measured by a spectrometer (FLUOstar Omega; BMG Labtech) at 450 nm and the absorbance at 540 nm was subtracted.

Question: With 3-oxo-C12:2-HSL as the substance, how does the “anti-inflammatory effect (TNFα secretion) when TAS2R138 is inhibited” value read?
Answer: abolished
